Laboratory results from patent US10538485B2, “Compounds for use as therapeutic agents affecting P53 expression and/or activity” (ABIVAX, priority 2011, dated 2020).

What was measured:
Assay type in all cases: cell-based
[1] = system: p53 (wild-type p53 MCF7 cells); assay: p53 and Δ133p53 mRNA level by RT-qPCR in MCF7 cells; details: 5 μM, 48 hours, vs DMSO
Method: (§1) The compounds of the invention have been tested according to the following pharmacological test and the three compounds have been more particularly tested: (40), (1) and (45), all diluted in DMSO. Their effects were thus compared to cells treated with DMSO. A positive control was used, TG003, a benzothiazole compound known to alter splicing through the inhibition of Clk/Sty family activity (Sigma, ref: T5575).
(§2) Two breast cancer cell lines have been treated with 5 μM of drugs for 48 hours: wild-type p53 MCF7 cells and mutant p53 (R280K) MDA-MB-231-Luc-D3H2N provided by Caliper Life Science (parental Line source: American Type Culture collection). The MDA-MB-231-Luc-D3H2N cells were maintained in two different media during treatment: a DMEM supplemented with 10% foetal calf serum (FCS) and a FCS-free medium for 24 hours followed by 24 hours in a complete medium. The MC7 cells were maintained in a DMEM/FCS 10% medium.
(§3) Cells were harvested after 48 hours of treatment. Total RNAs (RNeasy Mini-Kit, Qiagen) and proteins (NuPage LDS 1×, Invitrogen) were extracted to analyse mRNA expression by nested RT-PCR or RT-qPCR and protein expression by Western Blot.
(§4) Analysis of p53 expression was assessed both at mRNA (full-length and truncated, Δ133p53 isoforms) and protein (full-length) levels by RT-qPCR and Western Blot, respectively.
(§5) The p53 isoform cDNA being too long to be specifically quantified by RT-qPCR, a semi-quantitative RT-PCR method was therefore used, requiring high quality total RNA 28S/18S ratio (>1.5). After reverse-transcription of 500 ng of total RNA using random primers, actin cDNA was amplified by PCR to confirm reverse-transcription efficiency. 0.5 μg of total RNA from each tumour sample was reverse-transcribed (AMV RT, 45 C, random primer) and cDNA quality confirmed by amplification of actin by PCR in 30 cycles. p53 isoform cDNA was amplified by 2 nested PCR of 30 cycles using primers specific of each isoforms as described in Bourdon et al. (Genes Dev., 2005, 19: 2122). Tumours were considered to express each p53 isoform after sequencing of the corresponding PCR fragment.

[2] = system: p53 (wild-type p53 MCF7 cells); assay: p53 protein expression by Western Blot (4 antibodies) in MCF7 cells; details: 5 μM, 48 hours, vs DMSO
Method: as §1, §2
Cells were harvested after 48 hours of treatment. […]
(§6) p53 protein expression was determined using a panel of 4 different antibodies, namely DO1, SAPLI, CMI and DO12 as described in Bourdon et al. (Genes Dev., 2005, 19: 2122), to avoid problem of detection due to post-translational modification.
The amount of total proteins in each extract was quantified using BCA kit (promega). […]
(§7) Scanned autoradiographs were quantified using AIDA/2D densitometry software.

[3] = system: p53-target genes Hdm2, Bcl-2, p21 (wild-type p53 MCF7 cells); assay: p53 transcriptional activity: p53-target gene expression by Western-blot in MCF7 cells; details: 5 μM, 48 hours
Method: as §1, §2, §3
(§8) Analysis of p53 transcriptional activity was assessed through analysis of p53-target gene expression by Western-blot. Four p53-target genes were studied: Hdm2, Bcl-2, p21 and Bax. Hdm2 is known to bind p53 and to negatively regulate p53 activity and stability. p21 is known to mediate p53 dependent cycle arrest. Bcl 2 is known to have an anti-proliferative effect and an apoptotic protective effect, while Bax is known to have a pro-apoptic effect. Bax was not detected in both MCF7 and MDA-MB-231-Luc-D3H2N cells, while p21 was not detected in MDA-MB-231-Luc-D3H2N cells maintained in FCS-free medium. The Western-blot was performed as above described using the antibodies described in Bourdon et al., Genes Dev., 2005, 19: 2122.

[4] = system: p53 (mutant p53 (R280K) MDA-MB-231-Luc-D3H2N cells); assay: p53 mRNA level by RT-qPCR in MDA-MB-231-Luc-D3H2N cells; details: 5 μM, 48 hours; for p53 expression at mRNA levels (total isoforms, TA): mutant p53 MDA-MB-231-Luc-D3H2N cells in normal medium
Method: as §1, §2, §3, §4, §5

[5] = system: p53 (mutant p53 (R280K) MDA-MB-231-Luc-D3H2N cells); assay: p53 protein expression by Western Blot (4 antibodies) in MDA-MB-231-Luc-D3H2N cells; details: 5 μM, 48 hours
Method: as §1, §2, §3, §6
The amount of total proteins in each extract was quantified using BCA kit (promega). 8% SDS-PAGE gels were used. Equal amount (30 μg) of proteins was loaded on each lane. Proteins were then transferred electrophoretically on nitrocellulose membrane. Membranes were blocked in TBS/0.1% Tween 20 containing 3% milk for one hour and then incubated overnight with the primary antibodies diluted in TBS/0.1% Tween 20 containing 3% milk. After several washes in TBS/Tween, membranes were incubated with anti-rabbit Ig antibodies linked to HRP. Membranes were developed with ECL according to the manufacturer's instructions.
as §7

[6] = system: p53-target genes Hdm2, Bcl-2, p21 (mutant p53 MDA-MB-231-Luc-D3H2N cells); assay: p53 transcriptional activity: p53-target gene expression by Western-blot in MDA-MB-231-Luc-D3H2N cells; details: 5 μM, 48 hours
Method: as §1, §2, §3, §8

[7] = system: p53 isoforms produced by alternative splicing (wild-type p53 MCF7 cells); assay: p53 isoforms (α, β, γ) expression at mRNA level in MCF7 cells; details: 5 μM, 48 hours, RT-qPCR
Method: as §2, §3
(§9) Expression of p53 isoforms produced by alternative splicing (α, β and γ) was analysed at mRNA levels by RT-qPCR using primers/probe specific of each C-terminal variants. The α-forms are the most abundant forms. In the low abundant forms, β-forms are more expressed than γ-forms.
as §5, with “A semi-quantitative” for “The p53 isoform cDNA being too long to be specifically quantified by RT-qPCR, a semi-quantitative”, “method” for “method was therefore used,”, “RT, 45C,” for “RT, 45 C,”, “described by” for “described in”

[8] = system: p53 isoforms produced by alternative splicing (mutant p53 MDA-MB-231-Luc-D3H2N cells); assay: p53 isoforms (α, β, γ) expression at mRNA level in MDA-MB-231-Luc-D3H2N cells; details: 5 μM, 48 hours, RT-qPCR
Method: as §2, §3, §9
as §5, with “A semi-quantitative” for “The p53 isoform cDNA being too long to be specifically quantified by RT-qPCR, a semi-quantitative”, “method” for “method was therefore used,”, “RT, 45C,” for “RT, 45 C,”, “described by” for “described in”

[9] = mutant p53 MDA-MB-231-Luc-D3H2N cells in FCS-free medium
[10] = mutant p53 MDA-MB-231-Luc-D3H2N cells in normal medium

| Structure (SMILES) | total p53 expression (total isoforms, TA) at mRNA levels [1] | p53 protein levels (full-length) [2] | expression of Bcl-2 (p53-target gene) [3] | expression of Hdm2 (p53-target gene) [3] | p53 expression at mRNA levels (total isoforms, TA) [4] | p53 protein levels (full-length) [5, 9] | p53 protein levels (full-length) [5, 10] | p53-target genes expression [6, 10] | expression of p53 β-forms (mRNA) [7] | expression of p53 γ-forms (mRNA) [7] | p53 α-form expression at mRNA levels [7] | p53 α-form expression at mRNA levels [8, 9] | expression of p53 β-forms (mRNA) [8, 10] | expression of p53 γ-forms (mRNA) [8, 10] | p53 α-form expression at mRNA levels [8, 10] | also measured |
| --- | --- | --- | --- | --- | --- | --- | --- | --- | --- | --- | --- | --- | --- | --- | --- | --- |
| CCN(CC)CCCNC(=O)c1cccc(Nc2cccc(/C=C/c3ccc(OC)cc3)c2)c1 [Compound 40] | did not change | decreased | decreased expression | decreased expression | decreased | did not change | did not change | did not affect | tend to increase | tend to increase | did not change | did not change | tend to increase | tend to increase | did not change | Δ133p53 mRNA level [1]: increased; p53-target genes expression [6, 9]: did not affect |
| CCN(CC)CCNC(=O)c1ccccc1Nc1ccc(OC(F)(F)F)cc1 [Compound 45, N-(2-diethylamino-ethyl)-2-(4-trifluoromethoxy-phenylamino)-benzamide] | did not change | decreased | decreased expression | decreased expression | decreased | did not change | did not change | slight decrease | tend to increase | tend to increase | did not change | did not change | tend to increase | tend to increase | did not change | p53 expression at mRNA levels (total isoforms, TA): decreased or not [4, 9]: decreased; expression of Bcl-2 (p53-target gene) [6, 9]: slight decrease; expression of p53 β-forms (mRNA) [8, 9]: tend to increase; expression of p53 γ-forms (mRNA) [8, 9]: tend to increase; significant increase of p53 β-forms (mRNA) [8, 10]: 3 fold; significant increase of p53 γ-forms (mRNA) [8, 10]: 2 fold |
